Measurements published in the NIST ThermoML archive (doi:10.1021/je3003578).
± gives the expanded uncertainty stated by the source.

Assay: xn = mol fraction of the nth substance listed
Settings: 101 kPa, Liquid

CCOCCCN [3-ethoxy-1-propanamine] + O
mass density [kg/m3]
Settings	293.15 K	298.15 K	303.15 K
x1 = 0.000108	–	997.018 ± 0.31	995.609 ± 0.31
x1 = 0.000319	–	996.937 ± 0.31	995.522 ± 0.32
x1 = 0.000625	–	996.811 ± 0.31	995.392 ± 0.32
x1 = 0.000942	–	996.67 ± 0.31	995.256 ± 0.32
x1 = 0.001284	–	996.533 ± 0.31	995.106 ± 0.32
x1 = 0.001947	–	996.269 ± 0.31	994.822 ± 0.32
x1 = 0.002912	–	995.851 ± 0.31	994.409 ± 0.32
x1 = 0.00392	–	995.45 ± 0.31	993.991 ± 0.32
x1 = 0.005098	–	995.024 ± 0.32	993.55 ± 0.32
x1 = 0.00981	–	993.348 ± 0.32	991.796 ± 0.32
x1 = 0.0148	–	991.824 ± 0.32	990.144 ± 0.33
x1 = 0.01956	–	990.53 ± 0.32	988.708 ± 0.33
x1 = 0.02832	–	988.433 ± 0.33	986.387 ± 0.33
x1 = 0.03914	–	986.207 ± 0.33	983.868 ± 0.34
x1 = 0.05082	–	983.995 ± 0.34	981.31 ± 0.34
x1 = 0.06674	–	980.975 ± 0.35	977.903 ± 0.35
x1 = 0.09536	–	975.145 ± 0.36	971.645 ± 0.37
x1 = 0.1209	–	969.369 ± 0.38	965.331 ± 0.39
x1 = 0.1452	–	963.561 ± 0.39	959.341 ± 0.4
x1 = 0.1844	–	954.192 ± 0.42	949.751 ± 0.43
x1 = 0.2121	–	947.02 ± 0.43	942.563 ± 0.45
x1 = 0.2438	944.543 ± 0.44	940.074 ± 0.46	935.55 ± 0.47
x1 = 0.2923	935.456 ± 0.47	930.954 ± 0.48	926.38 ± 0.49
x1 = 0.361	922.252 ± 0.51	917.676 ± 0.53	913.059 ± 0.54
x1 = 0.4369	911.545 ± 0.56	906.929 ± 0.57	902.254 ± 0.58
x1 = 0.4937	902.62 ± 0.59	897.985 ± 0.61	893.262 ± 0.62
x1 = 0.5513	895.311 ± 0.62	890.64 ± 0.64	885.906 ± 0.65
x1 = 0.6214	887.472 ± 0.66	882.775 ± 0.68	877.992 ± 0.69
x1 = 0.6775	881.634 ± 0.69	876.891 ± 0.7	872.12 ± 0.72
x1 = 0.6943	880.062 ± 0.7	875.446 ± 0.71	870.586 ± 0.73
x1 = 0.7458	875.436 ± 0.72	870.539 ± 0.74	865.744 ± 0.75
x1 = 0.7733	873.142 ± 0.73	868.397 ± 0.75	863.589 ± 0.76
x1 = 0.7947	871.067 ± 0.75	866.312 ± 0.76	861.557 ± 0.77
x1 = 0.8276	868.648 ± 0.76	863.952 ± 0.78	859.105 ± 0.79
x1 = 0.8488	–	862.009 ± 0.79	–
x1 = 0.8744	864.922 ± 0.78	860.155 ± 0.8	855.327 ± 0.81
x1 = 0.8993	862.73 ± 0.8	858.054 ± 0.81	853.46 ± 0.82
x1 = 0.9189	861.498 ± 0.81	856.71 ± 0.82	851.896 ± 0.83
x1 = 0.9411	859.742 ± 0.82	855.013 ± 0.83	850.2 ± 0.84
x1 = 0.9486	859.29 ± 0.82	854.542 ± 0.83	849.691 ± 0.85
x1 = 0.9613	858.247 ± 0.83	853.53 ± 0.84	848.739 ± 0.85
x1 = 0.9746	857.315 ± 0.83	852.649 ± 0.85	847.719 ± 0.86
x1 = 0.9871	856.398 ± 0.84	851.83 ± 0.85	846.839 ± 0.87
x1 = 1	855.715 ± 0.84	851.018 ± 0.86	846.075 ± 0.87
